Data set [1] is described as follows: Solubility seen while preparing loading solutions. It counts as physicochemical. The text has this: After drying the block in an oven overnight the vacuum method was again used to inject a solution of PLG (85:15) (0.105 g) in acetonitrile (50 cm^3). Again the block was oven dried overnight.
The nature of data set [2]: Leaching of cis-platin from HA block into distilled water, absorbance at 206 nm. It counts as physicochemical. The protocol: No yellow colour was observed within the block.
Leaching experiments were carried out in distilled water (35 cm^3) with stirring, in the absence of light and closed to prevent evaporation. Absorbance was recorded at λ 206 nm at appropriate intervals and all caclulations required the extinction coefficient 3057 mol^−1 dm^3 cm^−1. [formula]

Data set [3] is described as follows: Leaching of [Fe(phen)3][ClO4]2 from HA blocks into distilled water, UV-Vis at 512 nm. It counts as physicochemical. The text has this: Leaching with stirring of solutions to avoid inaccuracies due to concentration gradients. (According to present arrangements however some anomalies may result from occasional jarring of the block by the magnetic follower).
Half of the block prepared in method 3 was immersed in distilled water (30 cm3) and the absorbance recorded by UV-Vis spectrometry at wavelength 512 nm. An extinction coefficient of 10,620 mol^−1 dm^3 cm^−1 was used in all calculations.
Vacuum method 3 was used for loading the compounds onto HA, again blocks of porosity 83.35% (0006) were used with approximate dimensions, 20×20×15mm, weight 3.6-3.8 g. […] […] Again the blocks were dried in the oven. (In order to fully dissolve the polymer in acetronitrile stirring for up to 1 hour is required before loading).
All leaching experiments were undertaken using the cut halves of the loaded blocks with distilled water (30 cm3) and constant stirring. […] This buoyancy is likely to be due to the polymer blocking pores in the HA trapping air inside the block. […] Again absorbance at λ 512 nm was recorded at appropriate intervals. [formula]

Data set [4] concerns human osteosarcoma like cells(HOS). Description: MTT assay of cell proliferation, HOS cells. It counts as cell-based. The source says:
(§1) Two osteosarcoma cell lines and primary human osteoblasts were used in the cell culture studies of the effect of increased MTX concentration and duration time. The MG63 cells were obtained from a […] (ATCC-CRL-1427). The human osteosarcoma like cells(HOS) cells were obtained from a […] (ATCC-CRL-1543). The human osteoblast like cells(HOB) were isolated from patients undergoing total knee replacement. The cell lines were each cultured in complete Dulbecco's Modified Eagle's Medium (DMEM) (Gibco, UK) supplemented with 10% foetal calf serum (FCS) (Gibco, UK), non essential amino acids (1%), ascorbic acid (150˜g/ml), L glutamine (0.02M), HEPES (0.01M), penicillin (100 units/ml) and streptomycin (100˜g/ml), at 37° C. and 5% CO2 in a 99% humidified sterile atmosphere. The medium was changed at least twice a week to prevent nutrient depletion-and waste product accumulation.
(§2) Once the cells had become confluent, they were removed by emptying the medium, washing with 10 ml PBS and adding 5 ml of 0.25% Trypsin and incubating at 37° C. […] Next the cells were counted under a light microscope and concentrations of 13.2×10^4 cells/ml made up. […]
(§3) The effects of MTX on the proliferation of ostersarcoma cells was measured by MTT assay. […] The absorbance of each well was then read by a Dynatech microplate reader (BioRad Model 3550) at a wavelength of 595 nm and 5 sec mixing time. […]

For a further data set, the system named is MG63 cells. The data set can be described thus: MTT assay of cell proliferation, MG63 cells. It counts as cell-based, human.
Source text: as §1, §2, §3

Data set [5] deals with human osteoblast like cells(HOB). The data set can be described thus: MTT assay of cell proliferation, HOB cells. It counts as cell-based.
Source text: as §1, §2, §3
A general note: Tetrazolium assays rely on reduction of a dye to a coloured formazan, in cell work by metabolically active cells.

Data set [6] in a line: Leaching of MTX from HA discs with or without PLG. It counts as physicochemical. As to the method: Initially the release of MTX from HA using the polymer PLG (75:25) was performed to establish whether this polymer {which is expected to degrade at a slower rate than PLG (50:50)} induced a slowed rate of release of MTX. HA discs from the second batch were used for the experiment and approximately the same quantities of MTX, PLG and acetonitrile were used. The experiment was labelled as follows; IA and IB were loaded by centrifugation and IB contains polymer, IC and ID were loaded by the vacuum technique and ID contains polymer. The following results-were obtained [formula]

The subject of a further data set is osteoblast cells. The settings on record: 5 mM MTX; cited from earlier work.
In a further data set the test system is osteosarcoma cells. As to conditions: 5 mM MTX; cited from earlier work.
The nature of data set [7]: Leaching of Prednisolone from HA discs with or without PLG. The settings on record: presence of PLG (50:50). It counts as physicochemical. As to the method:
Serial dilution experiments were performed to obtain the following calibration chart and equation for Prednisolone. [formula]
Four HA discs from the second batch were used for these experiments. Approximately […] of Prednisolone was used in each of the acetonitrile solutions. The experiments were labelled 1AA, 1BB, 1CC and 1DD. 1M and 1BB were loaded by centrifugation and 1BB contained 0.1 g of PLG (50:50). 1CC and 1DD were loaded using the vacuum technique and 1DD contained 0.1 g of PLG (50:50). The standard leaching experiments were carried out and the results presented below. [formula]

The mark [8] stands for this setting: block loaded with complex and PLG (50:50).
[9] abbreviates: 1 day exposure, MTX 0.1 to 1000 μg/ml.
Setting [10] is: 3 day exposure, same concentrations.

“Also recorded” adds a separate entry of the source. Bounds are passed on as bounds.

On to Poly(DL-Lactide-co-Glycolide) [PLG], for which, in data set [1], the solubility in methanol result is reported as “not soluble” and the solubility in water entry is listed as “not soluble”.

As for `N.N.[Cl][Pt][Cl]` [cis-platin], the “time after which almost the entire drug / the majority is released from HA” value in [2] (no polymer, distilled water, stirring, dark) is 45 min. For the same compound, the “effect of PLG on release of cis-platin from HA” value in data set [2] (presence of PLG (50:50)) was “slowed”.

On to “Iron(II) Tris Phenanthrolin Perchlorate [[Fe(phen)3][ClO4]2]”, for which the “time after which almost all complex is released from the block” value in [3] (block loaded by vacuum method 3 from methanol, no polymer, distilled water, stirring) worked out at 170 min. Moreover, the “effect of PLG impregnation on release of complex” value in [3] (setting [8]) is on record as “dramatically slows the release”; in data set [3] (block loaded with complex and PLG (50:50), listed as Iron Tris Phen) it was “significantly slows the release”. The “time at which continuing release of complex is still observed” value in data set [3] (setting [8]) was more than 5 days. The “time after which approximately all / the majority of complex is released” value in data set [3] (control block loaded from acetonitrile, no PLG) came out at 300 min. In addition, the “further quantity released after solution replaced with distilled water” value in data set [3] (method 3 block, replaced after 330 minutes, read after a further 20 hours) stood at 0.14 mg. Further, in [3] (no polymer), the “release profile of complex from the block” value was “two phases; also recorded: initial burst”.

Consider `CN(Cc1cnc2nc(N)nc(N)c2n1)c1ccc(C(=O)N[C@@H](CCC(=O)O)C(=O)O)cc1` [MTX, Methotrexate], for which the “cell proliferation (MTT)” value in data set [4] (setting [9]) is listed as “only a small decrease in proliferation”; in [4] (setting [10]) it was “reduced level of cell proliferation compared with the 1 day exposure samples”; with MG63 cells (MG63, 1 day exposure, MTX 0.1 to 1000 μg/ml) it was “decrease in proliferation as MTX concentration rose”; in the data set on MG63 cells (MG63, 3 day exposure, rising MTX concentration), “erratic behaviour; also recorded: affected only slightly”; in data set [5] (setting [9]), “decrease in proliferation as MTX concentration rose”; in data set [5] (setting [10]), “reduced level of cell proliferation compared with the 1 day exposure samples; also recorded: affected to a similar degree to the HOS cells”. Also, in [6] (presence of PLG (50:50), weighted discs), the “effect of PLG (50:50) on release of MTX from HA” value is given as “slower release rate”. Also, in [6] (presence of PLG (75:25)), the “effect of PLG (75:25) on release of MTX from HA” value was “does slow the release”. Besides, the “decrease in proliferation of osteoblast cells” value in the data set on osteoblast cells is recorded as 30%. Besides, the “decrease in proliferation of osteosarcoma cells” value with osteosarcoma cells is reported as 90%.

Take `C[C@]12C=CC(=O)C=C1CC[C@@H]1[C@@H]2[C@@H](O)C[C@@]2(C)[C@H]1CC[C@]2(O)C(=O)CO` [Prednisolone]: the “effect of polymer on release of Prednisolone from HA” value in [7] was “slowed”. In addition, the solubility in acetonitrile entry in data set [1] (acetonitrile) is on record as “dissolves”.

The values above are taken from patent US20040265350A1, “Use of a porous carrier” (priority 2000, published 2004).
